{"source": "patent US20240115557A1", "about": "“INHIBITORS OF RNA-GUIDED NUCLEASES AND USES THEREOF” (The Brigham and Women's Hospital, Inc., priority 2022, published 2024)", "key": {"U2OS.eGFP.PEST cells": {"test_system": "U2OS.eGFP.PEST cells", "assay": "eGFP fluorescence counter assay in absence of SpCas9:gRNA", "format": "cell-based, human", "method": "FIG. 73A-73E Counter assays to validate BRD7586 in cells FIG. 73A,B Immunoblotting analysis of SpCas9 expression in (A) HEK293T cells or (B) U20S.eGFP.PEST cells transfected with SpCas9 plasmid were incubated with BRD7586 for 24 h (n=2 or 3 independent experiments). p>0.05 for BRD7586 at […] compared to DMSO in U20S.eGFP.PEST cells (paired t test, two-tailed) FIG. 73C Changes in the fluorescence intensity in the presence of BRD7586 in U20S.eGFP.PEST. Cells were treated with the compound for 24 h, and the fluorescence was measured to calculate the fraction of GFP-positive populations. Means from 3 independent experiments are shown. […] Error bars represent SD from 3 independent experiments. For SpCas9, p≤0.01 for BRD7586 at 15 μM compared to DMSO. For LbCas12a, p>0.05 for BRD7586 at 15 μM compared to DMSO in all experiments (unpaired t test, two-tailed)."}, "Plasma stability assay": {"assay": "Plasma stability assay", "format": "in vitro ADME", "details": "2 μM, 50% mouse plasma in PBS, 2 h", "method": "The stability of the compound in mouse plasma was assessed following a reported protocol.^50 BRD7586 (2 μM) was incubated with 50% mouse plasma (K2 EDTA, BioIVT) in PBS for 2 h in duplicate. Propantheline was included as a control."}, "HEK293T cells": {"test_system": "HEK293T cells", "assay": "CellTiter-Glo cell viability assay, HEK293T", "format": "cell-based, human", "details": "24 h", "method": "HEK293T cells or U2OS.eGFP.PEST cells were plated in a 96-well plate at the density of 30,000 cells per well or 20,000 cells per well, respectively. The next day, cells were treated with indicated amount of compounds for 24 h. Then, cellular ATP levels were measured using CellTiter-Glo Luminescent Cell Viability Assay (Promega) with an EnVision Multilabel Plate Reader (PerkinElmer) at the integration time of 0.5 s per well."}, "SpCas9 [1]": {"biological_target": "T1, SpCas9 (Streptococcus pyogenes serotype M1, UniProt Q99ZW2)", "T1 sequence (Q99ZW2 whole entry)": "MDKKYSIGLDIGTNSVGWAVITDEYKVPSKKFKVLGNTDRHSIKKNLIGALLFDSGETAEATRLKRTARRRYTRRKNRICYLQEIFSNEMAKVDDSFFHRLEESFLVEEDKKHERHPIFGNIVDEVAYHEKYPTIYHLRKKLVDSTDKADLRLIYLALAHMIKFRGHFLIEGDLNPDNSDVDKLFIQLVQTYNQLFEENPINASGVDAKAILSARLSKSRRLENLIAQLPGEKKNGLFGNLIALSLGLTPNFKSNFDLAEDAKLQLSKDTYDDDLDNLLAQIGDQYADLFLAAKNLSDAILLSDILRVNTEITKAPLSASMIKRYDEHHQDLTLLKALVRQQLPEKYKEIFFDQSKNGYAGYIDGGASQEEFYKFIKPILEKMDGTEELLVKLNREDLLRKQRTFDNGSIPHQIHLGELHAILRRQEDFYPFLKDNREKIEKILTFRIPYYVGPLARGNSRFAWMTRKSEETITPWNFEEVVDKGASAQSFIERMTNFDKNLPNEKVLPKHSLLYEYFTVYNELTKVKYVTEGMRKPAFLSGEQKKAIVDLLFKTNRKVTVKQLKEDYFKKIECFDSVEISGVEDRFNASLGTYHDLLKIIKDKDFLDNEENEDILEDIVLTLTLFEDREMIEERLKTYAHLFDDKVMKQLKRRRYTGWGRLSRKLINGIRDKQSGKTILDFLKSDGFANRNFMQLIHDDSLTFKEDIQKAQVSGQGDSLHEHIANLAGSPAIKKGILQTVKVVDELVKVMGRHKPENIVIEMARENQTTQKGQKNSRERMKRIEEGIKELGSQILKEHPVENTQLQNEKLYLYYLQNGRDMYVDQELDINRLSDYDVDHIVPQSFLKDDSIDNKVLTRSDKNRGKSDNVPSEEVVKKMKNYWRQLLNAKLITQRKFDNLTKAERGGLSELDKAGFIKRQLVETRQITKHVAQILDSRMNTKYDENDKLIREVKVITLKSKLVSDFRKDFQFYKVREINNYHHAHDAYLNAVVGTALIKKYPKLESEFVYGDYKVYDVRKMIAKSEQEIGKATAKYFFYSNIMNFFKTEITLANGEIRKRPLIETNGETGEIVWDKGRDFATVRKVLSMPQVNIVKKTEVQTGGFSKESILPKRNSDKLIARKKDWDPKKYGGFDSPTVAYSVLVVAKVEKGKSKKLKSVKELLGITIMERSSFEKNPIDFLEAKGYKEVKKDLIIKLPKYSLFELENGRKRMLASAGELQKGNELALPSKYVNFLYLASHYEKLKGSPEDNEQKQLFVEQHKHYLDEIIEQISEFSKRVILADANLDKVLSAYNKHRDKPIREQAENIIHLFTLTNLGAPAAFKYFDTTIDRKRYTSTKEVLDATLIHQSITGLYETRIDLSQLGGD", "assay": "Target engagement in live cells (photo-crosslinking, pull-down)", "format": "cell-based", "details": "HEK293T, 20 μM probe, 20 μM competitor", "method": "HEK293T cells were plated in a 6-well plate (400,000 cells/well). The next day, cells were transfected with […] of Cas9 expression plasmid (pX330, Addgene #42230)^51 using Lipofectamine 3000 (Invitrogen). Eight hours after transfection, cells were split into 4 wells of a 12-well plate. Total 24 h after transfection, cells were treated with DMSO, Diazirine-BRD7586 (20 μM), or Diazirine-BRD7586 with BRD7586 (both at 20 μM) for 2 h. Cells were washed with PBS once, and 500 μL of fresh PBS was added to each well. The plate was placed on ice, and cells were irradiated with UV (365 nm) for 15 min. After the removal of PBS, cells were stored at−80° C. until further analysis. Thawed cells were suspended in a lysis buffer (25 mM HEPES, 50 mM KCl, 1% Triton X-100, 1× protease inhibitor cocktail, pH 7.4, 200 μL per well), and a brief sonication was performed to ensure cell lysis. Next, click chemistry was performed with 100 μM of biotin-azide, 350 μM of Cu-TBTA, and 1.5 mM of ascorbate. The reaction was proceeded for 2 h at room temperature with mild rotation, then proteins were precipitated by the addition of cold methanol (5-fold volume of the reaction mixture) to the mixture and keeping at −80° C. for >2 h. Protein pellet was obtained by centrifugation for 10 min at 16,000 g and 4° C. […]"}, "SpCas9 [2]": {"biological_target": "T1, SpCas9", "assay": "Strand displacement assay (SDA) / cumulative activity assay (CAA), SpCas9 primary screen", "format": "biochemical", "details": "result in words", "outline": "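SpCas9:gRNA RNP in 20 mM Tris-HCl pH 7.5, 100 mM KCl, 5 mM MgCl2 was used at 10 nM (2× stock) with Alexa Fluor 647-labelled substrate and excess quencher strand (1 nM and 5 nM, 2× stocks). Fluorescence was read after 2.5 h at 37 °C, where cleavage lets the quencher strand anneal.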"}}}
{"smiles": "O=C(CCS(=O)(=O)c1ccc(Cl)cc1)Nc1nc(-c2ccncc2)cs1", "note": "[BRD7586]", "values": [{"measurement": "Effect on eGFP expression in the absence of SpCas9:gRNA", "setting": "U2OS.eGFP.PEST cells", "value": "without affecting the eGFP expression"}, {"measurement": "Stability in mouse plasma", "setting": "Plasma stability assay", "value": 40, "unit": "%"}, {"measurement": "Cytotoxicity", "setting": "HEK293T cells", "value": "without introducing cytotoxicity"}, {"measurement": "Target engagement in live cells", "setting": "SpCas9 [1]", "value": "demonstrating target engagement in live cells"}, {"measurement": "Inhibition of SpCas9 in CAA", "setting": "SpCas9 [2]", "value": "dose-dependent inhibition"}]}
